“And” between values parts separate entries of the source, which are not always exact repeats. Equal values may be shown once.
Columns and labels:
C222M GlTIM [1] = molecular target: T1, C222M GlTIM (Giardia intestinalis, UniProt P36186, C222M); assay: Binding of 2-PG by change in intrinsic fluorescence; parameters: species or system Giardia lamblia
T1 construct: made in house; host or cells: E. coli BL21(DE3)pLys
Method: (§1) The change in the intrinsic fluorescence of GlTIM in response to the addition of the transition state analog 2-PG was used to determine the affinity of the enzyme for this ligand, as previously reported. Intrinsic fluorescence spectra were collected before and after each addition of 1 or 2 μL aliquots of a 3 or 30 mM stock solution of 2-PG. The final volume added to the fluorescence cell was always less than 5% of the total volume; there was no effect on the absorbance of the protein solution at 280 nm at the highest 2-PG concentration assayed. In all cases, the spectra of samples without protein were subtracted from those that contained the enzyme. For each mutant, the maximal fluorescence intensity at 332 nm, for every 2-PG concentration, was plotted and fitted to y = (α/2Et)(Et+x+Kd) - √ (Et+x+Kd)^2– (4xEt), where y = 1 - (Fi/F) (Fi, initial fluorescence; F, fluorescence intensity at each 2-PG concentration); α is the maximal fluorescence change attained at saturating concentration of the ligand, Et represents the concentration of binding sites, Kd is the equilibrium dissociation constant and x is the concentration of 2-PG [21], [23].

C222N GlTIM [2] = molecular target: T2, C222N GlTIM (Giardia intestinalis, UniProt P36186, C222N); assay: as above; parameters: species or system Giardia lamblia
T2 construct: made in house; host or cells: E. coli BL21(DE3)pLys
T2 sequence (P36186 whole entry C222N): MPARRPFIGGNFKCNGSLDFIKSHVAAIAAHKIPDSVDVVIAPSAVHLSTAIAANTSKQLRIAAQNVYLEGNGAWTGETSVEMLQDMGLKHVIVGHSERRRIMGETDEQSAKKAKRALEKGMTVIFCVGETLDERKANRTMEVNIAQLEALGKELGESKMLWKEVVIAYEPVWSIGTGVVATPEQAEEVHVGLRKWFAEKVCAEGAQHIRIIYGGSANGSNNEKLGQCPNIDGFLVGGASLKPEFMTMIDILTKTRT
Method: as §1

C222D GlTIM [3] = molecular target: T3, C222D GlTIM (Giardia intestinalis, UniProt P36186, C222D); assay: as above; parameters: species or system Giardia lamblia
T3 construct: made in house; host or cells: E. coli BL21(DE3)pLys
T3 sequence (P36186 whole entry C222D): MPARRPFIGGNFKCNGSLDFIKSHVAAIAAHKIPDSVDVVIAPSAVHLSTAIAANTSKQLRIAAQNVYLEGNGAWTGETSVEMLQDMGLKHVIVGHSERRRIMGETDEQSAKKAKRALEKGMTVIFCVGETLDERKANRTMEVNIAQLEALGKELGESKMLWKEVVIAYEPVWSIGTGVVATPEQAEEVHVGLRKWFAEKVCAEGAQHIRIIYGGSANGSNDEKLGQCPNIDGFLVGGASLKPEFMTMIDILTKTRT
Method: as §1

C222V GlTIM [4] = molecular target: T4, C222V GlTIM (Giardia intestinalis, UniProt P36186, C222V); assay: as above; parameters: species or system Giardia lamblia
T4 construct: made in house; host or cells: E. coli BL21(DE3)pLys
T4 sequence (P36186 whole entry C222V): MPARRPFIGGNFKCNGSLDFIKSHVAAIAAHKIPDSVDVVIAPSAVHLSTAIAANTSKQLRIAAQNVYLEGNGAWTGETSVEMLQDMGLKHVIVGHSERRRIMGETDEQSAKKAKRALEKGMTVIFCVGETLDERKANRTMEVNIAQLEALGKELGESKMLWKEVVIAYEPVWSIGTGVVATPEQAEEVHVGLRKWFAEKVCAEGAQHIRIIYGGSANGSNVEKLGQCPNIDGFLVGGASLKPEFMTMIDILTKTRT
Method: as §1

C222F GlTIM [5] = molecular target: T5, C222F GlTIM (Giardia intestinalis, UniProt P36186, C222F); assay: as above; parameters: species or system Giardia lamblia
T5 construct: made in house; host or cells: E. coli BL21(DE3)pLys
T5 sequence (P36186 whole entry C222F): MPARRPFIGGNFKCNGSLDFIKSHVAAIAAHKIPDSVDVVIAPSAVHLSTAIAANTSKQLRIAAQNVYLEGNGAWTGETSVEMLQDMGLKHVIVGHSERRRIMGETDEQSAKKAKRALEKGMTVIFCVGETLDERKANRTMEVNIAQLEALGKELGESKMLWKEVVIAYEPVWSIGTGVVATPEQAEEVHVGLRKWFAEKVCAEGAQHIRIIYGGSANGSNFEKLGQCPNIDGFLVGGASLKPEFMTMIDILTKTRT
Method: as §1

C222K GlTIM [6] = molecular target: T6, C222K GlTIM (Giardia intestinalis, UniProt P36186, C222K); assay: as above; parameters: species or system Giardia lamblia
T6 construct: made in house; host or cells: E. coli BL21(DE3)pLys
T6 sequence (P36186 whole entry C222K): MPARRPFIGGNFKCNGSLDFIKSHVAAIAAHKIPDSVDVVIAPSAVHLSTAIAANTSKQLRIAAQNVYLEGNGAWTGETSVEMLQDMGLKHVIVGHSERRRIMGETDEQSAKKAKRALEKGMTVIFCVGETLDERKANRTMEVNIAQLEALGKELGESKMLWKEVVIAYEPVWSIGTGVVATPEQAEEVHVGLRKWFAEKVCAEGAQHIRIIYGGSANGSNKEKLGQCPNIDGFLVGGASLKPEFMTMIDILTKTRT
Method: as §1

WT GlTIM [7] = molecular target: T7, WT GlTIM (Giardia intestinalis, UniProt P36186); assay: as above; parameters: species or system Giardia lamblia; conditions: 2-PG vs WT GlTIM, fluorescence at 332 nm
T7 construct: made in house; host or cells: E. coli BL21(DE3)pLys
T7 sequence (P36186 whole entry): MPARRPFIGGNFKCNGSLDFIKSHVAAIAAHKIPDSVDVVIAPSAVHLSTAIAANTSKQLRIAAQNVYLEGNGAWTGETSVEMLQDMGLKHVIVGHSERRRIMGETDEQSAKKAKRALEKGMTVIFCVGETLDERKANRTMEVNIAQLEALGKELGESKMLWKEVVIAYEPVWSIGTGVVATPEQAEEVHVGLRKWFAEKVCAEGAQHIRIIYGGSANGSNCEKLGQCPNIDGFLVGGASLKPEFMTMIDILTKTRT
Method: as §1

C222M GlTIM [8] = molecular target: T1, C222M GlTIM; assay: Competitive inhibition of TIM activity by 2-PG (global fit); format: biochemical, Giardia lamblia
Method: (§2) Glyceraldehyde 3-phosphate (GAP), buffers, salts and all the other analytical grade reagents were acquired from Sigma–Aldrich; α-glycerol-3-phosphate dehydrogenase (α-GDH) was from Roche, crystallization screen kits were obtained from Hampton Research. Restriction enzymes, DNA polymerase and T4 DNA ligase were purchased from New England BioLabs and Invitrogene. Oligonucleotide synthesis and DNA sequencing was performed at the Unidad de Biología Molecular, Instituto de Fisiología Celular, UNAM. Protein concentration was determined by the bicinchoninic acid method or by absorbance at 280 nm for pure GlTIM (ε280 = 26600 M^-1cm^-1). The TIM activity was determined at 25°C by a coupled assay, following the decrease in absorbance at 340 nm. The standard reaction mixture contained 100 mM triethanolamine/10 mM EDTA, pH 7.4 (TE buffer), 1 mM GAP, 0.2 mM NADH, and 0.9 units of α-GDH (20 μg/mL); the reaction was initiated by addition of 5 ng/mL of WT, C222V or C222M GlTIM, 10 ng/mL of C222N, 20 ng/mL of C222D or C222F, and 200 ng/mL of C222K. Kinetic, binding and stability data were analyzed by non-linear regression calculations with Origin software.
(§3) Determination of Km and Vmax was performed by fitting initial velocity data at GAP concentrations ranging from 0.3 to 3 mM to the Michaelis-Menten equation (v = Vmax•S/Km+S) by non-linear regression calculations. The kcat was derived from Vmax by considering a molecular mass for the monomer of 27.7 kDa. The Ki for 2-phosphoglycolate (2-PG) was calculated by global fit of initial velocity curves (GAP from 0.3 to 3 mM) obtained at different fixed concentrations of the inhibitor. Prior to fitting collectively the data to the simple competitive inhibition equation (v = Vmax•S/Km(1+I/Ki)+S), individual data were plotted as double reciprocal plots to confirm competitive inhibition.

C222N GlTIM [9] = molecular target: T2, C222N GlTIM; assay: as above; format: biochemical, Giardia lamblia
Method: as §2, §3

C222D GlTIM [10] = molecular target: T3, C222D GlTIM; assay: as above; format: biochemical, Giardia lamblia; conditions: 2-PG vs C222D
Method: as §2, §3

C222V GlTIM [11] = molecular target: T4, C222V GlTIM; assay: as above; format: biochemical, Giardia lamblia
Method: as §2, §3

C222F GlTIM [12] = molecular target: T5, C222F GlTIM; assay: as above; format: biochemical, Giardia lamblia; conditions: 2-PG vs C222F
Method: as §2, §3

C222K GlTIM [13] = molecular target: T6, C222K GlTIM; assay: as above; format: biochemical, Giardia lamblia; conditions: highest concentrations of 2-PG that could be assayed
Method: as §2, §3

WT GlTIM [14] = molecular target: T7, WT GlTIM; assay: as above; format: biochemical, Giardia lamblia; conditions: 2-PG vs WT GlTIM
Method: as §2, §3

GlTIM = conditions: cited from earlier work
[15] = test system: yeast TIM, tyrosine by phenylalanine in the YGGS motif; parameters: method as in PMID 1390632; conditions: mutant vs wild type yeast TIM; cited from earlier work
[16] = test system: yeast TIM, serine replaced by alanine in the YGGS motif; parameters: method as in PMID 1390632; conditions: mutant vs wild type yeast TIM; cited from earlier work

T1 sequence (P36186 whole entry C222M): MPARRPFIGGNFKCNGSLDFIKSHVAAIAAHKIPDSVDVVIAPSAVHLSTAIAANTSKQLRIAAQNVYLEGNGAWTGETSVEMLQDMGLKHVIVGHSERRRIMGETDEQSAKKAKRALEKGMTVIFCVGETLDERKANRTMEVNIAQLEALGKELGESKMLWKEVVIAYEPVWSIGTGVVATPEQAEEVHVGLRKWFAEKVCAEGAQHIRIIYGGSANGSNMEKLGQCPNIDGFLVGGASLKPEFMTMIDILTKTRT

For `O=C(O)COP(=O)(O)O` [2-PG, 2-phosphoglycolate], the Kd (C222M GlTIM [1]; 2-PG vs C222M, fluorescence at 332 nm) was 79.4 ± 8.5 µM, the “Kd MUT/Kd WT ratio” value (C222M GlTIM [1]; C222M vs WT) was 3.01 and the Kd (C222N GlTIM [2]; 2-PG vs C222N, fluorescence at 332 nm) was 113 ± 41.7 µM. The “Kd MUT/Kd WT ratio” value (C222N GlTIM [2]; C222N vs WT) was 4.29, the “changes in fluorescence induced by 2-PG” value (C222D GlTIM [3]) was “minimal” and the Kd (C222V GlTIM [4]; 2-PG vs C222V, fluorescence at 332 nm) was 57.4 ± 7.1 µM. For the same compound, the “Kd MUT/Kd WT ratio” value (C222V GlTIM [4]; C222V vs WT) was 2.17, the “changes in fluorescence induced by 2-PG” value (C222F GlTIM [5]) was “minimal” and the “changes in fluorescence induced by 2-PG” value (C222K GlTIM [6]) was “minimal”. For the same compound, the Kd (WT GlTIM [7]) was 26.4 ± 2.6 µM, the Ki (C222M GlTIM [8]; 2-PG vs C222M, competitive) was 325 ± 50 µM and the “Ki MUT/Ki WT ratio” value (C222M GlTIM [8]; C222M vs WT) was 3.7 and 3.74. The Ki (C222N GlTIM [9]; 2-PG vs C222N, competitive) was 560 ± 59 µM, the “Ki MUT/Ki WT ratio” value (C222N GlTIM [9]; C222N vs WT) was 6.4 and 6.44 and the Ki (C222D GlTIM [10]) was 1480 ± 168 µM. The Ki (C222V GlTIM [11]; 2-PG vs C222V, competitive) was 98 ± 10 µM, the “Ki MUT/Ki WT ratio” value (C222V GlTIM [11]; C222V vs WT) was 1.13 and the Ki (C222F GlTIM [12]) was 7280 ± 2010 µM. The “inhibition by 2-PG” value (C222K GlTIM [13]) was “only minimal inhibition was observed” and the Ki (WT GlTIM [14]) was 87 ± 15 µM.

For `O=C(O)c1cc(SSc2ccc([N+](=O)[O-])c(C(=O)O)c2)ccc1[N+](=O)[O-]` [DTNB, 5,5′-dithio-bis (2-nitrobenzoic acid)], the “catalytic activity of GlTIM after derivatization of C222” value (GlTIM) is given as “completely abolished” and the “inactivation of GlTIM” value (GlTIM) is given as “total inactivation”.

For `CSS(C)(=O)=O` [MMTS, methylmethane thiosulfonate], the “catalytic activity of GlTIM after derivatization of C222” value (GlTIM) is given as “reduced the catalytic activity of GlTIM by half” and the “decrease of the kcat/Km ratio after modification of C222” value (GlTIM) is given as “three-fold decrease”.

For `O=C(COP(=O)(O)O)NO` [PGH, phosphoglycolohydroxamate], the “increase in the Kd” value [15] is listed as 200 fold and the change of affinity [16] is listed as 5 fold.

— article PMC3718800, “Structural and Functional Perturbation of Giardia lamblia Triosephosphate Isomerase by Modification of a Non-Catalytic, Non-Conserved Region” (PLoS ONE, 2013)
